From US8188059B2, “Compounds and methods for modulating expression of GCGR” (Isis Pharmaceuticals, Inc., priority 2006, dated 2012)
Strand notation (5' to 3'): a small letter for the sugar, then the base; units joined by * are phosphorothioate-linked, units joined directly phosphodiester-linked; [ ] holds rarer units or linkages, { } end groups; capitals alone tell only the bases. e = 2'-O-(2-methoxyethyl) (MOE); [5mC] = 5-methylcytosine; d = 2'-deoxy (DNA)

Tests used:
[1] = tested on: SGLT2 mRNA; assay: SGLT2 mRNA levels in kidney of Balb/c mice, twenty 1-10-1 MOE gapmers at 350 nmol/kg, PPS 534 and PPS 553 (Example 18, Table 74); format: in vivo, mouse; settings: 350 nmol/kg i.p. twice per week for two weeks
Procedure: Twenty 1-10-1 MOE gapmers that are complementary to human/monkey/mouse/rat SGLT2 were designed, synthesized and tested in vivo for suppression of SGLT2 mRNA levels in kidney. Data are averages from two experiments in which male 6-week old Balb/c mice were administered intraperitoneal injections of 350 nmol/kg of oligonucleotide, twice per week, over a period of two weeks (a total of four injections). Mice were sacrificed 48 hours following the last administration and evaluated for SGLT2 mRNA levels in kidney. SGLT2 mRNA levels were determined by quantitative real-time PCR analysis according to standard procedures, using two different PCR primer probe sets, primer probe set (PPS) 534 and PPS 553. SGLT2 mRNA levels were normalized to cyclophilin mRNA levels, which were also measured by quantitative real-time PCR.

[2] = tested on: PTP1B mRNA; assay: Dose response for human PTP1B in HuVEC cells, Primer Probe Set 3000 (Example 25, Table 87); format: cell-based
Procedure: (§1) Human vascular endothelial (HuVEC) cells were plated at a density of 5000 cells per well and treated as described herein with nM concentrations of short antisense compound as indicated in Table 86. After the treatment period, RNA was isolated from the cells and PTP1B mRNA levels were measured by quantitative real-time PCR, as described herein. PTP1B mRNA levels were adjusted according to total RNA content as measured by RIBOGREEN®. Two different human PTP1B primer probe sets were used to measure mRNA levels. Results with Primer Probe Set (PPS) 198 are shown in Table 86, and results with Primer Probe Set (PPS) 3000 are shown in Table 87. Results are presented as percent inhibition of PTP1B mRNA expression relative to untreated control cells.

[3] = tested on: PTP1B mRNA; assay: Dose response for human PTP1B in HuVEC cells, Primer Probe Set 198 (Example 25, Table 86); format: cell-based
Procedure: as §1

[4] = tested on: PCSK9 mRNA; assay: Dose-dependent inhibition of PCSK9 in Hep3B cells with EC50 (Example 19, Table 76); format: cell-based, human
Procedure: Short antisense compounds targeted to a PCSK9 nucleic acid were tested in a dose response experiment Hep3B cells. After the treatment period, RNA was isolated from the cells and PCSK9 mRNA levels were measured by quantitative real-time PCR, as described herein. PCSK9 mRNA levels were normalized to cyclophilin mRNA levels, as measured by real-time PCR using a cyclophilin-specific primer probe set. Results are presented as percent inhibition of PCSK9, relative to untreated control cells. […] As illustrated in the following table, PCSK9 mRNA levels were reduced in a dose-dependent manner.

[5] = tested on: PCSK9 mRNA; format: cell-based, human; settings: Hep3B cells, 100 nM, relative to untreated control cells; for % Inhib (PCSK9 mRNA): 0 = no reduction observed
Procedure: When cells reached appropriate confluency, they were treated with oligonucleotide using LIPOFECTIN® as described. […] Cells were treated and data were obtained in duplicate or triplicate. […] Cells were harvested 16-24 hours after oligonucleotide treatment.
Short antisense compounds targeted to a PCSK9 nucleic acid were tested for their effects on PCSK9 mRNA in vitro. The Isis No, gapmer motif and SEQ ID NO of each short antisense compound are shown again in Table 75. Cultured Hep3B cells were treated with 100 nM of short antisense compound. 5-10-5 MOE gapmers targeted to a PCSK9 nucleic acid were used as positive controls. After the treatment period, RNA was isolated from the cells and PCSK9 mRNA levels were measured by quantitative real-time PCR, as described herein. PCSK9 mRNA levels were adjusted according to total RNA content as measured by RIBOGREEN®. Results are presented in Table 75 as percent inhibition of PCSK9 (% Inhib), relative to untreated control cells.

Substance | SGLT2 mRNA in kidney, % change relative to saline ([1]; primer probe set 534) [%] | SGLT2 mRNA in kidney, % change relative to saline ([1]; primer probe set 553) [%] | % Inhibition of PCSK9 ([4]; 5 nM) [%] | % Inhibition of PCSK9 ([4]; 10 nM) [%] | % Inhibition of PCSK9 ([4]; 20 nM) [%] | % Inhibition of PCSK9 ([4]; 40 nM) [%] | % Inhibition of PCSK9 ([4]; 80 nM) [%] | % Inhibition of PCSK9 ([4]; 160 nM) [%] | % Inhibition Range (PCSK9 mRNA) [5] | % Inhib (PCSK9 mRNA) [5] [%] | other results
370717 (antisense eT*dA*dG*d[5mC]*d[5mC]*dA*d[5mC]*d[5mC]*dA*dA*d[5mC]*eT) [compound 370717] | −84.4 | −84.3 | – | – | – | – | – | – | – | – | –
379684 (antisense eT*dG*dT*d[5mC]*dA*dG*d[5mC]*dA*dG*dG*dA*eT) [compound 379684] | −45.0 | −43.2 | – | – | – | – | – | – | – | – | –
379685 (antisense eT*dG*dA*d[5mC]*d[5mC]*dA*dG*d[5mC]*dA*dG*dG*eA) [compound 379685] | −10.3 | −20.5 | – | – | – | – | – | – | – | – | –
379686 (antisense eA*d[5mC]*d[5mC]*dA*d[5mC]*dA*dA*dG*d[5mC]*d[5mC]*dA*eA) [compound 379686] | −71.9 | −75.1 | – | – | – | – | – | – | – | – | –
379687 (antisense eG*dA*dT*dG*dT*dT*dG*d[5mC]*dT*dG*dG*e[5mC]) [compound 379687] | −47.1 | −52.1 | – | – | – | – | – | – | – | – | –
379688 (antisense e[5mC]*d[5mC]*dA*dA*dG*d[5mC]*d[5mC]*dA*d[5mC]*dT*dT*eG) [compound 379688] | −62.6 | −70.4 | – | – | – | – | – | – | – | – | –
379689 (antisense eA*dG*dA*dG*d[5mC]*dG*d[5mC]*dA*dT*dT*d[5mC]*e[5mC]) [compound 379689] | −17.5 | −30.4 | – | – | – | – | – | – | – | – | –
379690 (antisense eA*d[5mC]*dA*dG*dG*dT*dA*dG*dA*dG*dG*e[5mC]) [compound 379690] | −18.9 | −22.5 | – | – | – | – | – | – | – | – | –
379691 (antisense eA*dG*dA*dT*d[5mC]*dT*dT*dG*dG*dT*dG*eA) [compound 379691] | −35.0 | −48.6 | – | – | – | – | – | – | – | – | –
379692 (antisense eT*dG*dT*dT*d[5mC]*d[5mC]*dA*dG*d[5mC]*d[5mC]*d[5mC]*eA) [compound 379692] | −88.1 | −88.5 | – | – | – | – | – | – | – | – | –
399173 (antisense eA*eT*dG*d[5mC]*dT*dA*dG*dT*dG*d[5mC]*dA*d[5mC]*eT*eA) [compound 399173] | – | – | – | – | – | – | – | – | – | – | % Inhibition of PTP1B mRNA ([2]; PPS 3000, 1.11 nM): 0%; % Inhibition of PTP1B mRNA ([2]; PPS 3000, 3.33 nM): 11%; % Inhibition of PTP1B mRNA ([2]; PPS 3000, 10.0 nM): 59%; % Inhibition of PTP1B mRNA ([2]; PPS 3000, 30.0 nM): 92%; % Inhibition of PTP1B mRNA ([3]; PPS 198, 1.11 nM): 0%; % Inhibition of PTP1B mRNA ([3]; PPS 198, 3.33 nM): 24%; % Inhibition of PTP1B mRNA ([3]; PPS 198, 10.0 nM): 63%; % Inhibition of PTP1B mRNA ([3]; PPS 198, 30.0 nM): 89%
399208 (antisense eA*eG*d[5mC]*dT*d[5mC]*dG*d[5mC]*dT*dA*d[5mC]*d[5mC]*dT*e[5mC]*eT) [compound 399208] | – | – | – | – | – | – | – | – | – | – | % Inhibition of PTP1B mRNA ([2]; PPS 3000, 1.11 nM): 0%; % Inhibition of PTP1B mRNA ([2]; PPS 3000, 3.33 nM): 47%; % Inhibition of PTP1B mRNA ([2]; PPS 3000, 10.0 nM): 85%; % Inhibition of PTP1B mRNA ([2]; PPS 3000, 30.0 nM): 96%; % Inhibition of PTP1B mRNA ([3]; PPS 198, 1.11 nM): 0%; % Inhibition of PTP1B mRNA ([3]; PPS 198, 3.33 nM): 37%; % Inhibition of PTP1B mRNA ([3]; PPS 198, 10.0 nM): 86%; % Inhibition of PTP1B mRNA ([3]; PPS 198, 30.0 nM): 93%
399276 (antisense eG*eA*dG*dG*dT*dA*dT*d[5mC]*d[5mC]*d[5mC]*dA*dT*e[5mC]*eT) [compound 399276] | – | – | – | – | – | – | – | – | – | – | % Inhibition of PTP1B mRNA ([2]; PPS 3000, 1.11 nM): 0%; % Inhibition of PTP1B mRNA ([2]; PPS 3000, 3.33 nM): 14%; % Inhibition of PTP1B mRNA ([2]; PPS 3000, 10.0 nM): 64%; % Inhibition of PTP1B mRNA ([2]; PPS 3000, 30.0 nM): 86%; % Inhibition of PTP1B mRNA ([3]; PPS 198, 1.11 nM): 0%; % Inhibition of PTP1B mRNA ([3]; PPS 198, 3.33 nM): 8%; % Inhibition of PTP1B mRNA ([3]; PPS 198, 10.0 nM): 61%; % Inhibition of PTP1B mRNA ([3]; PPS 198, 30.0 nM): 89%
399315 (antisense eG*eG*d[5mC]*dA*dA*d[5mC]*dT*dT*d[5mC]*dA*dA*d[5mC]*e[5mC]*eT) [compound 399315] | – | – | – | – | – | – | – | – | – | – | % Inhibition of PTP1B mRNA ([2]; PPS 3000, 1.11 nM): 0%; % Inhibition of PTP1B mRNA ([2]; PPS 3000, 3.33 nM): 25%; % Inhibition of PTP1B mRNA ([2]; PPS 3000, 10.0 nM): 71%; % Inhibition of PTP1B mRNA ([2]; PPS 3000, 30.0 nM): 93%; % Inhibition of PTP1B mRNA ([3]; PPS 198, 1.11 nM): 0%; % Inhibition of PTP1B mRNA ([3]; PPS 198, 3.33 nM): 20%; % Inhibition of PTP1B mRNA ([3]; PPS 198, 10.0 nM): 68%; % Inhibition of PTP1B mRNA ([3]; PPS 198, 30.0 nM): 88%
400307 (e[5mC]*eG*dG*d[5mC]*d[5mC]*dG*d[5mC]*dT*dG*dA*d[5mC]*d[5mC]*eA*e[5mC]; antisense) [compound 400307] | – | – | 35 | 39 | 45 | 56 | 92 | 93 | 70-80% | 76 | –
400308 (e[5mC]*e[5mC]*dG*dG*d[5mC]*d[5mC]*dG*d[5mC]*dT*dG*dA*d[5mC]*e[5mC]*eA; antisense) [compound 400308] | – | – | 31 | 10 | 26 | 40 | 77 | 86 | 50-60% | 55 | –
400309 (e[5mC]*e[5mC]*d[5mC]*dG*dG*d[5mC]*d[5mC]*dG*d[5mC]*dT*dG*dA*e[5mC]*e[5mC]; antisense) [compound 400309] | – | – | 49 | 23 | 38 | 12 | 72 | 78 | 40-50% | 44 | –
400327 (eG*eT*d[5mC]*d[5mC]*d[5mC]*d[5mC]*dA*dA*dA*dG*dT*d[5mC]*e[5mC]*e[5mC]; antisense) [compound 400327] | – | – | 5 | 37 | 23 | 49 | 43 | 55 | 30-40% | 36 | –
400330 (e[5mC]*e[5mC]*dA*d[5mC]*dG*dT*dG*dG*dG*d[5mC]*dA*dG*e[5mC]*eA; antisense) [compound 400330] | – | – | 8 | 32 | 40 | 69 | 82 | 71 | 40-50% | 43 | –
400331 (eG*e[5mC]*d[5mC]*dA*d[5mC]*dG*dT*dG*dG*dG*d[5mC]*dA*eG*e[5mC]; antisense) [compound 400331] | – | – | 29 | 40 | 47 | 63 | 75 | 82 | 30-40% | 35 | –
400352 (antisense e[5mC]*eA*d[5mC]*d[5mC]*d[5mC]*dT*d[5mC]*dA*d[5mC]*d[5mC]*d[5mC]*d[5mC]*e[5mC]*eA) [compound 400352] | – | – | 7 | 16 | 40 | 44 | 63 | 64 | 20-30% | 29 | –
400353 (antisense eA*e[5mC]*dA*d[5mC]*d[5mC]*d[5mC]*dT*d[5mC]*dA*d[5mC]*d[5mC]*d[5mC]*e[5mC]*e[5mC]) [compound 400353] | – | – | 15 | 27 | 23 | 43 | 54 | 48 | 10-20% | 19 | –
